Data set [1] has as its target T1, Hepatic sodium/bile acid cotransporter (Homo sapiens, UniProt Q14973).
T1 sequence (Q14973 whole entry): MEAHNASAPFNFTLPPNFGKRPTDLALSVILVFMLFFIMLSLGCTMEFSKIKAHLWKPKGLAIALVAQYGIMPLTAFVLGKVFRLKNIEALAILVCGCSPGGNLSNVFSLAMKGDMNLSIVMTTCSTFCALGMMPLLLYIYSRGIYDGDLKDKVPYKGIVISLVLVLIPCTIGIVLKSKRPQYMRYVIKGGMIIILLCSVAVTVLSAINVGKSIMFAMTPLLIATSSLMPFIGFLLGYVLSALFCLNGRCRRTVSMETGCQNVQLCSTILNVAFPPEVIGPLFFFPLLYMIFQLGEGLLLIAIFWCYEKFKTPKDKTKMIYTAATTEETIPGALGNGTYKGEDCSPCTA
Briefly: TP_TRANSPORTER: inhibition of Taurocholate uptake (Taurocholate: 5 uM, Progesterone: 100 uM) in NTCP-expressing HeLa cells. It is filed as functional, cell-based.

In data set [2] the target is T1, Hepatic sodium/bile acid cotransporter. It is filed as functional, cell-based, HeLa.
Data set [3] shares this target. Briefly: TP_TRANSPORTER: inhibition of Taurocholate uptake (Taurocholate: 5 uM, Deoxycholate: 100 uM) in NTCP-expressing HeLa cells. It is filed as functional, cell-based.
Data set [4] shares this target. Briefly: TP_TRANSPORTER: inhibition of Taurocholate uptake (Taurocholate: 5 uM, Chlorpropamide: 100 uM) in NTCP-expressing HeLa cells. It counts as functional, cell-based.

On to `CC(=O)[C@H]1CC[C@H]2[C@@H]3CCC4=CC(=O)CC[C@]4(C)[C@H]3CC[C@]12C` [PROGESTERONE], for which the Inhibition entry in data set [1] was “inhibitor [(at a rough estimate) 80 % inhibition]”.
In data set [2], `C[C@H](CCC(=O)O)[C@H]1CC[C@H]2[C@@H]3[C@@H](O)C[C@@H]4C[C@H](O)CC[C@]4(C)[C@H]3CC[C@]12C` [URSODIOL] came in with an IC50 of 3.6 µM.
On the same count and under the same terms, the same measure for `CC(C)NCC(O)COc1cccc2ccccc12` (stereo not drawn) [PROPRANOLOL]: 5.5 µM; for `CC(C)NC[C@H](O)COc1cccc2ccccc12` [LEVOPROPRANOLOL]: 6.1 µM.
As to `C[C@H](CCC(=O)O)[C@H]1CC[C@H]2[C@@H]3CC[C@@H]4C[C@H](O)CC[C@]4(C)[C@H]3C[C@H](O)[C@]12C` [DEOXYCHOLIC ACID], in data set [3], the Inhibition result is “inhibitor [(at a rough estimate) 70 % inhibition]”.
Take `CC(=O)N1CCN(c2ccc(OCC3COC(Cn4ccnc4)(c4ccc(Cl)cc4Cl)O3)cc2)CC1` (stereo not drawn) [KETOCONAZOLE]: 264 µM corresponded to half-maximal inhibition in data set [2] (IC50).
Take `O=C1OC(c2ccc(O)c(S(=O)(=O)O)c2)(c2ccc(O)c(S(=O)(=O)O)c2)c2c(Br)c(Br)c(Br)c(Br)c21` [SULFOBROMOPHTHALEIN SODIUM]: in data set [2], it took 7.3 µM to reach half-maximal inhibition (IC50).
`CCCNC(=O)NS(=O)(=O)c1ccc(Cl)cc1` [CHLORPROPAMIDE]: in data set [4], the Inhibition result was “inhibitor [(at a rough estimate) 30 % inhibition]”.

The term IC50 denotes the concentration at which inhibition is half-maximal. Read a low IC50 as inhibition by little substance.

Source of the values: ChEMBL document CHEMBL2073909 (J Pharmacol Exp Ther, 1999).
